Values after ≈ are worked out from the molar mass of the structure shown. Read-outs that look alike come from different tables or passages of the source.
Columns and labels:
Assay in all cases: Susceptibility testing of VVC clinical isolates at pH 7 and 4 (CLSI M27-A3)
[1] = system: C. albicans vaginal isolates; type: cell-based, Candida albicans; conditions: for MIC / MIC90: Candida albicans; for MIC: read-out: MIC; for MIC90: 60 isolates, read-out: MIC90
[2] = system: C. glabrata vaginal isolates; type: cell-based, Candida glabrata; conditions: for Number of isolates at MIC 0.03 μg/mL / Number of isolates at MIC 0.06 μg/mL / Number of isolates at MIC 0.25 μg/mL / Number of isolates at MIC 0.5 μg/mL / Number of isolates at MIC 1 μg/mL / Number of isolates at MIC 2 μg/mL / Number of isolates at MIC 0.125 μg/mL / Number of isolates at MIC 4 μg/mL / Number of isolates at MIC ≥4 μg/mL: 21 VVC isolates; for MIC90: Nakaseomyces glabratus, 21 isolates, read-out: MIC90
[3] = system: C. parapsilosis vaginal isolates; type: cell-based, Candida parapsilosis; conditions: 14 isolates, read-out: MIC90
[4] = system: C. tropicalis vaginal isolates; type: cell-based; conditions: Candida tropicalis, 13 isolates, read-out: MIC90

## CCC(C)n1ncn(-c2ccc(N3CCN(c4ccc(OCC5COC(Cn6cncn6)(c6ccc(Cl)cc6Cl)O5)cc4)CC3)cc2)c1=O (centres unmarked) [ITR, itraconazole]
[1]; 60 VVC isolates, 24 h, pH 4
  Number of isolates at MIC 0.008 μg/mL: 8
  Number of isolates at MIC 0.03 μg/mL: 13
  Number of isolates at MIC 0.06 μg/mL: 8
  Number of isolates at MIC 0.125 μg/mL: 2
  Number of isolates at MIC 0.25 μg/mL: 2
  Number of isolates at MIC 0.5 μg/mL: 2
  Number of isolates at MIC 2 μg/mL: 1
  Number of isolates at MIC […]: 24
[1]; 60 VVC isolates, 24 h, pH 7
  Number of isolates at MIC 0.008 μg/mL: 21
  Number of isolates at MIC 0.03 μg/mL: 9
  Number of isolates at MIC 0.06 μg/mL: 3
  Number of isolates at MIC 0.25 μg/mL: 2
  Number of isolates at MIC 0.5 μg/mL: 2
  Number of isolates at MIC 2 μg/mL: 1
  Number of isolates at MIC […]: 20
[1]; 60 VVC isolates, 48 h, pH 4
  Number of isolates at MIC 0.03 μg/mL: 23
  Number of isolates at MIC 0.06 μg/mL: 10
  Number of isolates at MIC 0.125 μg/mL: 6
  Number of isolates at MIC 0.25 μg/mL: 3
  Number of isolates at MIC 0.5 μg/mL: 3
  Number of isolates at MIC 1 μg/mL: 1
  Number of isolates at MIC […]: 10
  Number of isolates at MIC ≥4 μg/mL: 4
[1]; 60 VVC isolates, 48 h, pH 7
  Number of isolates at MIC 0.008 μg/mL: 6
  Number of isolates at MIC 0.03 μg/mL: 8
  Number of isolates at MIC 0.125 μg/mL: 6
  Number of isolates at MIC 0.25 μg/mL: 2
  Number of isolates at MIC 0.5 μg/mL: 2
  Number of isolates at MIC 2 μg/mL: 1
  Number of isolates at MIC […]: 34
  Number of isolates at MIC ≥4 μg/mL: 1
[1]; 48 h, pH 4, fluconazole-resistant isolate 1, pH 4, 48 h
  MIC: 0.125 µg/mL (≈ 0.177 µM)
[1]; 48 h, pH 4, fluconazole-resistant isolate 2, pH 4, 48 h
  MIC: 0.25 µg/mL (≈ 0.354 µM)
[1]; 48 h, pH 4, fluconazole-resistant isolate 3, pH 4, 48 h
  MIC: 0.5 µg/mL (≈ 0.709 µM)
[1]; 48 h, pH 4, fluconazole-resistant isolate 4, pH 4, 48 h
  MIC: 0.125 µg/mL (≈ 0.177 µM)
[1]; 48 h, pH 4, fluconazole-resistant isolate 5, pH 4, 48 h
  MIC: > 4 µg/mL
[1]; 48 h, pH 4, fluconazole-resistant isolate 6, pH 4, 48 h
  MIC: > 4 µg/mL
[1]; 48 h, pH 4, fluconazole-resistant isolate 7, pH 4, 48 h
  MIC: 0.5 µg/mL (≈ 0.709 µM)
[1]; 48 h, pH 4, fluconazole-resistant isolate 8, pH 4, 48 h
  MIC: > 4 µg/mL
[1]; 48 h, pH 4, fluconazole-resistant isolate 9, pH 4, 48 h
  MIC: > 4 µg/mL
[1]; 48 h, pH 4, fluconazole-resistant isolate 10, pH 4, 48 h
  MIC: 0.25 µg/mL (≈ 0.354 µM)
[1]; 48 h, pH 7, fluconazole-resistant isolate 1, pH 7, 48 h
  MIC: 0.125 µg/mL (≈ 0.177 µM)
[1]; 48 h, pH 7, fluconazole-resistant isolate 2, pH 7, 48 h
  MIC: 0.25 µg/mL (≈ 0.354 µM)
[1]; 48 h, pH 7, fluconazole-resistant isolate 3, pH 7, 48 h
  MIC: 0.5 µg/mL (≈ 0.709 µM)
[1]; 48 h, pH 7, fluconazole-resistant isolate 4, pH 7, 48 h
  MIC: 0.03 µg/mL (≈ 0.0425 µM)
[1]; 48 h, pH 7, fluconazole-resistant isolate 5, pH 7, 48 h
  MIC: 0.25 µg/mL (≈ 0.354 µM)
[1]; 48 h, pH 7, fluconazole-resistant isolate 6, pH 7, 48 h
  MIC: 0.016 µg/mL (≈ 0.0227 µM)
[1]; 48 h, pH 7, fluconazole-resistant isolate 7, pH 7, 48 h
  MIC: 0.5 µg/mL (≈ 0.709 µM)
[1]; 48 h, pH 7, fluconazole-resistant isolate 8, pH 7, 48 h
  MIC: 2 µg/mL (≈ 2.83 µM)
[1]; 48 h, pH 7, fluconazole-resistant isolate 9, pH 7, 48 h
  MIC: > 4 µg/mL
[1]; 48 h, pH 7, fluconazole-resistant isolate 10, pH 7, 48 h
  MIC: 0.125 µg/mL (≈ 0.177 µM)
[1]; pH 4, 24 h
  MIC90: 0.125 µg/mL (≈ 0.177 µM)
[1]; pH 4, 48 h
  MIC90: 5 µg/mL (≈ 7.09 µM)
[1]; pH 7, 24 h
  MIC90: 0.06 µg/mL (≈ 0.085 µM)
[1]; pH 7, 48 h
  MIC90: 0.125 µg/mL (≈ 0.177 µM)
[2]; 24 h, pH 4
  Number of isolates at MIC 0.03 μg/mL: 1
  Number of isolates at MIC 0.06 μg/mL: 2
  Number of isolates at MIC 0.25 μg/mL: 2
  Number of isolates at MIC 0.5 μg/mL: 9
  Number of isolates at MIC 1 μg/mL: 6
  Number of isolates at MIC 2 μg/mL: 1
[2]; 24 h, pH 7
  Number of isolates at MIC 0.03 μg/mL: 4
  Number of isolates at MIC 0.06 μg/mL: 2
  Number of isolates at MIC 0.125 μg/mL: 6
  Number of isolates at MIC 0.25 μg/mL: 3
  Number of isolates at MIC 0.5 μg/mL: 3
  Number of isolates at MIC 1 μg/mL: 2
  Number of isolates at MIC 4 μg/mL: 1
[2]; 48 h, pH 4
  Number of isolates at MIC 0.03 μg/mL: 1
  Number of isolates at MIC 0.06 μg/mL: 1
  Number of isolates at MIC 0.125 μg/mL: 1
  Number of isolates at MIC 0.5 μg/mL: 2
  Number of isolates at MIC 1 μg/mL: 4
  Number of isolates at MIC 2 μg/mL: 2
  Number of isolates at MIC 4 μg/mL: 2
  Number of isolates at MIC ≥4 μg/mL: 8
[2]; 48 h, pH 7
  Number of isolates at MIC 0.03 μg/mL: 1
  Number of isolates at MIC 0.06 μg/mL: 1
  Number of isolates at MIC 0.125 μg/mL: 1
  Number of isolates at MIC 0.25 μg/mL: 5
  Number of isolates at MIC 0.5 μg/mL: 8
  Number of isolates at MIC 2 μg/mL: 2
  Number of isolates at MIC ≥4 μg/mL: 3
[2]; pH 4, 24 h
  MIC90: 1 µg/mL (≈ 1.42 µM)
[2]; pH 4, 48 h
  MIC90: > 4 µg/mL
[2]; pH 7, 24 h
  MIC90: 1 µg/mL (≈ 1.42 µM)
[2]; pH 7, 48 h
  MIC90: > 4 µg/mL
[3]; pH 4, 24 h
  MIC90: 0.016 µg/mL (≈ 0.0227 µM)
[3]; pH 4, 48 h
  MIC90: 0.125 µg/mL (≈ 0.177 µM)
[3]; pH 7, 24 h
  MIC90: 0.03 µg/mL (≈ 0.0425 µM)
[3]; pH 7, 48 h
  MIC90: 0.125 µg/mL (≈ 0.177 µM)
[4]; pH 4, 24 h
  MIC90: 0.125 µg/mL (≈ 0.177 µM)
[4]; pH 4, 48 h
  MIC90: 0.5 µg/mL (≈ 0.709 µM)
[4]; pH 7, 24 h
  MIC90: 0.125 µg/mL (≈ 0.177 µM)
[4]; pH 7, 48 h
  MIC90: 0.5 µg/mL (≈ 0.709 µM)

Source: patent US20180256673A1, “METHODS FOR TREATING FUNGAL INFECTIONS” (priority 2015, published 2018)
